Measured values as given in PMC12691742, “Anti-Cancer Outcome of Glucocorticoid Receptor Transrepression by Synephrine Derivatives in Hematological Malignancies” (International Journal of Molecular Sciences, 2025).
Read-outs that look alike come from different tables or passages of the source.

Columns and labels:
[1] = test system: GR phosphorylated by Ser211 in K562 and Granta cells; assay: Western blot of nuclear phospho-GR (Ser211); format: cell-based; conditions: 10 h; Dex 10 µM, 4S-C2 50 µM, 8S-E3 50 µM, 10S-E2 15 µM, 13S-G2 25 µM
Method: (§1) Figure 3 Effects of synephrine derivatives on GR transactivation in Granta lymphoma and K562 leukemia cells. (A) Q-PCR analysis of FKBP51, GILZ, and DDIT4 mRNA expression in K562 and Granta cells. […] The Q-PCR results were normalized to the expression of the housekeeping gene RPL27 and are presented as fold changes compared to the control. The mean ± SD was calculated for three individual samples/condition (n = 3). Statistically significant differences compared to the control: * p < 0.05, ** p < 0.01. (B) The levels of the nuclear fraction of phospho-GR (Ser211) were determined using Western blot analysis (n = 3; characteristic images are presented in the figure). Histone H3 was used as a loading control.
Western blot analysis was performed as previously described. Proteins were resolved using SDS-PAGE. Membranes were blocked with 5% nonfat milk solution and then incubated with primary antibodies against phosphorylated GR (pGR, Ser211) (“Santa Cruz Biotechnology”, Santa Cruz, CA, USA) overnight at 4 °C. To verify equal protein loading and adequate transfer, the membranes were probed with Histone H3 antibodies (“Cell Signaling”, Boston, MA, USA). Goat anti-rabbit IgGs (“Jackson Immuno Research”, West Grove, PA, USA) were used as secondary antibodies. Signals were detected using ECL reagent and an ImageQuant LAS4000 system (“GE HealthCare”, Chicago, IL, USA). ImageJ 1.54h software was used for densitometry. The experiments were performed in triplicate.
7 K562, pGR nuclear 5 Granta, pGR nuclear
Supplementary Figure S 22. Quantification of Western blot analysis. K562 and Granta cells […]
μM) and 13S-G2 (25 μ M) for 10 h. Quantification of Western blot anal ysis of p- GR protein levels was done usin g Im a ge J f ree so ftwar e. Statisticall y significant diff eren ces as compared to control: […]

GR = target: T1, GR (Homo sapiens, UniProt P04150); assay: GR radioligand binding assay, competition with [3H]Dex in K562 cells
T1 construct: endogenous in cells; host or cells: K562
T1 sequence (P04150 1-777): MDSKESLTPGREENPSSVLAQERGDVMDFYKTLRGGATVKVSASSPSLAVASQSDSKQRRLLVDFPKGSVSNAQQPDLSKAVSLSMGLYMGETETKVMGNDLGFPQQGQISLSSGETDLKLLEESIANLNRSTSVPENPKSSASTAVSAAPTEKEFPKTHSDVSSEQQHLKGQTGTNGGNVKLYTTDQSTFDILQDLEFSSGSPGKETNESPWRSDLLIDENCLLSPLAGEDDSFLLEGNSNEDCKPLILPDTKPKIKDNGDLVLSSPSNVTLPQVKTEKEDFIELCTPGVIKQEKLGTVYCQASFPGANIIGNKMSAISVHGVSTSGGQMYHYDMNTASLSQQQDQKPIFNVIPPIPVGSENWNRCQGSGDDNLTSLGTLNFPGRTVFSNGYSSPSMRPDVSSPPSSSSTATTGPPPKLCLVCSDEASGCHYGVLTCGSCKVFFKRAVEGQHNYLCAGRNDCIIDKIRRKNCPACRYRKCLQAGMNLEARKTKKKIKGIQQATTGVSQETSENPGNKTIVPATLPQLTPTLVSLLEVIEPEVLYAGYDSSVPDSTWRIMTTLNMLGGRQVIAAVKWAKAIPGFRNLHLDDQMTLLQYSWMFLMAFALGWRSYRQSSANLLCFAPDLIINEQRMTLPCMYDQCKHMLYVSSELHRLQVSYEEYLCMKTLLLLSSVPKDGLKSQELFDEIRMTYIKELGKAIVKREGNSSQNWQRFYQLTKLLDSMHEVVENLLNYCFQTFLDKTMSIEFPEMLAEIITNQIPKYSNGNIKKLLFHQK
Method: (A,B). […] The stability of the complex was simulated using molecular dynamics in the GROMACS program. (C) GR binding affinity was estimated using a radioligand binding assay. […] Cell lysate radioactivity was measured using a RackBeta 1215 LC (LKB Wallac, Turku, Finland) spectrometer for 4 min. […] The experiments were performed in triplicate (n = 3).
After 90 min of incubation, the cells were washed twice by centrifugation in cold serum-free medium (1500 rpm, 5 min). The cells were then lysed with RIPA buffer (50 mM Tris (pH 8.0), 150 mM NaCl, 1 mM ethylenediaminetetraacetic acid, 0.1% sodium dodecyl sulfate, 0.5% sodium deoxycholate, 1% triton-X100, 10% glycerin, and protease inhibitor) for 20 min. Lysates were transferred to scintillation liquid, and radioactivity was measured using a RackBeta 1215 LC spectrometer for 4 min. […] IC50 was determined using GraphPad Prism software, Ver.7.0. […] “Top” meant the highest value in dpm and was equal to 100%, while the “bottom” was considered as the lowest value (0%). […] The IC50 values for each ligand were determined by plotting these curves. The experiments were performed in triplicate.

[2] = test system: NF-kB activity in Granta cells; assay: NF-kB.Luc reporter assay in Granta cells; format: cell-based; conditions: 5 h, 4S-C2 10 µM, 10S-E2 1 µM
Method: (§2) We analyzed GR TR function using an NF-kB.Luc reporter assay with the irritating inflammatory agent phorbol 13-acetate 12-myristate (TPA) as an inducer of NF-kB signaling and positive control.
(§3) Figure 4 Effects of synephrine derivatives on GR transrepression in Granta lymphoma and K562 leukemia cells. (A) K562 and Granta cells stably infected with the lentiviruses bearing the NF-kB luciferase reporter. Cells were incubated for 5 h with the solvent (control), TPA (5 ng/mL), 4S-C2 (10 µM), 8S-E3 (10 µM), 10S-E2 (1 µM), or 13S-G2 (1 µM). Luciferase activity was determined as described in the Materials and Methods section. (B) IL1-α and IL6 mRNA expression in K562 and Granta cells. Q-PCR results were normalized to the expression of the housekeeping gene RPL27 and are presented as the fold change compared to the control. The mean ± SD was calculated for three individual samples/condition (n = 3). Statistically significant differences compared to the control: * p < 0.05, ** p < 0.01.
Lentiviral stocks were generated using the lentiviral expression vector NF-kB. Luc was encoded with Firefly Luciferase reporters with the NF-kB-responsive promoter of minimal CMV promoter as a control (“System Bioscience”, Moutain View, CA, USA), along with packing plasmids GAG, REV, and VSVg. HEK-293T cells were transfected with the abovementioned plasmids using TurboFect reagent (“Thermo Scientific”, Waltham, MA, USA) according to the manufacturer’s protocol. […] The infection efficiency exceeded 90% (tracked by GFP fluorescence).
(§4) Cells (10^4 cells/well in a 24-well plate), stably expressing Firefly Luciferase under the NF-kB promoter, were treated for 5 h with TPA (12-O-tetradecanoylphorbol-13-acetate, Boston, MA, USA, 10 ng/mL), 4S-C2 (10 µM), 8S-E3 (10 µM), 10S-E2 (1 µM), 13S-G2 (1 µM), or the vehicle. Luciferase activity was measured as described using a commercial Luciferase Assay (“Promega”, Madison, WI, USA) and Luminometer TD 20/20 (“Turner Design Instruments”, San Jose, CA, USA). […]

[3] = test system: NF-kB activity in K562 cells; assay: NF-kB.Luc reporter assay in K562 cells; format: cell-based; conditions: 5 h, 4S-C2 10 µM
Method: as §2
as §3, with “Q-PCR results were normalized to the expression of the housekeeping gene RPL27 and are presented as the fold change compared to the control.” left out, “Statistically significant differences compared to the control: * p < 0.05, ** p < 0.01.” left out
Lentiviral stocks were generated using the lentiviral expression vector NF-kB. […] The infection efficiency exceeded 90% (tracked by GFP fluorescence).
as §4

[4] = test system: FKBP51, GILZ, DDIT4 mRNA expression in K562 and Granta cells; assay: Q-PCR of GR transactivation marker genes; format: cell-based; conditions: 4 h (FKBP51, GILZ) or 24 h (DDIT4); Dex 10 µM, 10S-E2 0.1 µM; vs control
From the text: Q-PCR results were confirmed by Western blot analysis of the level of GR phosphorylated by Ser211, known as a crucial protein modification for GR TA realization because of its binding to short cysteine-rich fragments of the coactivator CREB-binding protein [41].
as §1
Total RNA isolation from cell cultures and murine bones, reverse transcription, and Q-PCR were performed as described in [36]. Primers were designed using NCBI Primer-BLAST https://www.ncbi.nlm.nih.gov/tools/primer-blast/, accessed on 25 August 2025 (Supplementary Table S1). Results were normalized to the expression of the housekeeping RPL27 и Rpl27 genes. The experiments were performed in triplicate.

[5] = test system: leukemia and lymphoma cells (Granta, K562); parameters: method as in PMID 39858397; conditions: leukemia and lymphoma cells; read-out: cell viability IC50; cited from earlier work

Compound | GR phosphorylation level at Ser211 [1] | IC50 (GR) [µM] | effect on NF-kB activity [2] | effect on NF-kB activity [3] | expression of TA marker genes FKBP51, GILZ, DDIT4 [4] | IC50 [5] [µM] | IC50 (GR; K562 cells, 0.5 µM [3H]Dex, 90 min, n = 3) [µM]
CCCCCCNCC(O)c1ccc(OC)cc1 (stereo not drawn) [4S-C2, 2-(hexylamino)-1-(4-methoxyphenyl)ethanol] | weak increase | 3.21 | significantly decreased | induced it | – | – | –
CCCCCCNCC(O)c1ccc([N+](=O)[O-])cc1 (stereo not drawn) [13S-G2, 2-(hexylamino)-1-(4-nitrophenyl)ethanol] | weak increase | 0.69 | – | – | did not increase the expression | 13 to 26 | –
CNCC(Cl)c1ccc(OC(C)=O)cc1 (stereo not drawn) [CpdA, reference compound] | – | – | – | – | – | – | 2.84
